Source: patent publication US7560466B2, “Methods of treating or preventing autoimmune diseases with 2,4-pyrimidinediamine compounds” (Rigel Pharmaceuticals, Inc., priority 2003, dated 2009)
Counter-ions that a name gives are not always drawn. Like-named read-outs stand apart in the source and are kept apart here.

Tests used:
[1] = test system: cultured human mast cells (CHMC), ionomycin-induced degranulation; assay: CHMC low cell density ionomycin activation: tryptase assay; type: cell-based; conditions: low cell density CHMC, read-out: LD Tryptase, CHMC, Iono, 3pt
[2] = test system: cultured human mast cells (CHMC), IgE-induced degranulation; assay: CHMC low cell density IgE activation: tryptase assay; type: cell-based; conditions: low cell density CHMC
Summary of the method: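 Tryptase release read fluorogenically (30 min, room temperature) from supernatants of anti-IgE-challenged cultured human mucosal mast cells derived from umbilical cord CD34+ cells, at low density of 1000–1500 cells/well.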

[3] = 3-point, read-out: LD Tryptase, CHMC, IgE, 3pt
[4] = 8-point, read-out: LD Tryptase, CHMC, IgE, 8pt
[5] = ionomycin activation (2 μM final), 3pt
[6] = 3pt, read-out: LD Tryptase, CHMC, IgE, 3pt
[7] = 8pt, read-out: LD Tryptase, CHMC, IgE, 8pt

Row | SMILES | IC50 ([1]; ionomycin activation, 3-point) [µM] | IC50 [2, 3] [µM] | IC50 [2, 4] [µM] | IC50 [1, 5] [µM] | IC50 [2, 6] [µM] | IC50 [2, 7] [µM]
1 | CNC(=O)COc1c(C)cc(Nc2ncc(F)c(Nc3ccc4c(n3)NC(=O)C(C)(C)O4)n2)cc1C [Compound 1041, N2-[3,5-Dimethyl-4-(N-methylamino)carbonylmethyleneoxyphenyl]-N4-(2,2-dimethyl-3-oxo-4H-5-pyrid[1,4]oxazin-6-yl)-5-fluoro-2,4-pyrimidinediamine] | < 10 | < 10 | < 10 |  |  | 
2 | CCOC(=O)COc1c(C)cc(Nc2ncc(F)c(Nc3ccc4c(n3)NC(=O)C(C)(C)O4)n2)cc1Cl [Compound 1042, N2-(3-Chloro-4-ethoxycarbonylmethyleneoxy-5-methylphenyl)-N4-(2,2-dimethyl-3-oxo-4H-5-pyrid[1,4]oxazin-6-yl)-5-fluoro-2,4-pyrimidinediamine] | > 10 | > 10 |  |  |  | 
3 | Cc1cc(Nc2ncc(F)c(Nc3ccc4c(n3)NC(=O)C(C)(C)O4)n2)cc(Cl)c1OCC(=O)NCC(O)CO (centres unmarked) [Compound 1043, N2-[3-Chloro-4-[N-(2,3-dihydroxypropyl)amino]carbonylmethyleneoxy-5-methylphenyl]-N4-(2,2-dimethyl-3-oxo-4H-5-pyrid[1,4]oxazin-6-yl)-5-fluoro-2,4-pyrimidinediamine] | > 10 | < 10 | < 10 |  |  | 
4 | Cc1cc(Nc2ncc(F)c(Nc3ccc4c(n3)NC(=O)C(C)(C)O4)n2)cc(C)c1OCC(=O)NC1CCCC1 [Compound 1044, N2-[3,5-Dimethyl-4-(N-cyclopentylamino)carbonylmethyleneoxyphenyl]-N4-(2,2-dimethyl-3-oxo-4H-5-pyrid[1,4]oxazin-6-yl)-5-fluoro-2,4-pyrimidinediamine] | > 10 | > 10 | > 10 |  |  | 
5 | CNC(=O)COc1cccc(Nc2ncc(F)c(Nc3ccc4c(c3)NC(=O)C(F)(F)O4)n2)c1 [Compound 1045, N4-(2,2-Difluoro-3-oxo-4H-benz[1,4]oxazin-6-yl)-5-fluoro-N2-[3-(N-methylamino)carbonylmethyleneoxyphenyl]-2,4-pyrimidinediamine Hydrogen Chloride Salt] | > 10 | < 10 | < 10 |  |  | 
6 | CNC(=O)COc1cccc(Nc2ncc(F)c(Nc3ccc4c(c3)NC(=O)C(F)(F)O4)n2)c1 [Compound 1046, N4-(2,2-Difluoro-3-oxo-4H-benz[1,4]oxazin-6-yl)-5-fluoro-N2-[3-(N-methylamino)carbonylmethyleneoxyphenyl]-2,4-pyrimidinediamine Methanesulfonic Acid Salt] | > 10 | < 10 | < 10 |  |  | 
7 | CCn1ncc2ccc(Nc3ncc(F)c(Nc4ccc5c(n4)NC(=O)C(C)(C)O5)n3)cc21 [Compound 1049, N4-(2,2-Dimethyl-3-oxo-4H-5-pyrid[1,4]oxazin-6-yl)-N2-(1-ethylindazol-6-yl)-5-fluoro-2,4-pyrimidinediamine] | > 10 | < 10 | < 10 |  |  | 
8 | CC(C)n1ncc2ccc(Nc3ncc(F)c(Nc4ccc5c(n4)NC(=O)C(C)(C)O5)n3)cc21 [Compound 1050, N4-(2,2-Dimethyl-3-oxo-4H-5-pyrid[1,4]oxazin-6-yl)-N2-(1-isopropylindazol-6-yl)-5-fluoro-2,4-pyrimidinediamine] | > 10 | < 10 | < 10 |  |  | 
9 | CC1(C)CNc2nc(Nc3nc(Cl)ncc3F)ccc2O1 [Compound 1051, 2-Chloro-N4-(3,4-dihydro-2,2-dimethyl-4H-5-pyrid[1,4]oxazin-6-yl)-5-fluoro-4-pyrimidinea mine] | > 10 | > 10 |  |  |  | 
10 | Cn1ncc2ccc(Nc3ncc(F)c(Nc4ccc5c(n4)NCC(C)(C)O5)n3)cc21 [Compound 1052, N4-(3,4-Dihydro-2,2-dimethyl-4H-5-pyrid[1,4]oxazin-6-yl)-5-fluoro-N2-(1-methylindazol-6-yl)-2,4-pyrimidinediamine] | < 10 | < 10 | < 10 |  |  | 
11 | CNC(=O)COc1cccc(Nc2ncc(F)c(Nc3ccc4c(n3)NCC(C)(C)O4)n2)c1 [Compound 1053, N4-(3,4-Dihydro-2,2-dimethyl-4H-5-pyrid[1,4]oxazin-6-yl)-5-fluoro-N2-[3-(N-methylamino)carbonylmethyleneoxyphenyl]-2,4-pyrimidinediamine] | > 10 | < 10 | < 10 |  |  | 
12 | CNC(=O)c1ccc(Nc2ncc(F)c(Nc3ccc4c(n3)NC(=O)C(C)(C)O4)n2)cc1Cl [Compound 1054, N2-[3-Chloro-4-(N-methylamino)carbonylphenyl]-N4-(2,2-dimethyl-3-oxo-4H-5-pyrid[1,4]oxazin-6-yl)-5-fluoro-2,4-pyrimidinediamine] | > 10 | < 10 | < 10 |  |  | 
13 | CC1(C)Oc2ccc(Nc3nc(Nc4ccc5c(c4)OCCO5)ncc3F)nc2NC1=O [Compound 1055, N4-(2,2-Dimethyl-3-oxo-4H-5-pyrid[1,4]oxazin-6-yl)-N2-(3,4-ethylenedioxyphenyl)-5-fluoro-2,4-pyrimidinediamine] | > 10 | < 10 | < 10 |  |  | 
14 | Cn1ncc2ccc(Nc3ncc(F)c(Nc4ccc5c(n4)NC(=O)C(C)(C)O5)n3)cc21 [Compound 1057, N4-(2,2-Dimethyl-3-oxo-4H-5-pyrid[1,4]oxazin-6-yl)-5-fluoro-N2-[1-methylindazol-6-yl]-2,4-pyrimidinediamine p-Toluenesulfonic Acid Salt] | > 10 | < 10 | < 10 |  |  | 
15 | C[C@@H]1Oc2ccc(Nc3nc(Nc4cc(C(C)(C)C)[nH]n4)ncc3F)nc2NC1=O [Compound 1092, (S)—N2-(5-tert-Butyl-1H-pyrazol-3-yl)-5-fluoro-N4-(2-methyl-3-oxo-2H,4H-5-pyrid[1,4]oxazin-6-yl)-2,4-pyrimidinediamine] | > 10 | < 10 | < 10 |  |  | 
16 | Fc1cnc(Cl)nc1Nc1ccc2c(n1)NCCO2 [Compound 1117, 2-Chloro-5-fluoro-N4-(3,4-dihydro-2H,4H-5-pyrid[1,4]oxazin-6-yl)-4-pyrimidineamine] | > 10 | > 10 |  |  |  | 
17 | Fc1cnc(Nc2ccc(N3CCOCC3)cc2)nc1Nc1ccc2c(n1)NCCO2 [Compound 1128, N4-(3,4-Dihydro-2H,4H-5-pyrid[1,4]oxazin-6-yl)-5-fluoro-N2-(4-morpholinophenyl)-2,4-pyrimidinediamine] | > 10 |  | < 10 |  |  | 
18 | CN1CCN(c2ccc(Nc3ncc(F)c(Nc4ccc5c(n4)NCCO5)n3)cc2)CC1 [Compound 1141, N4-(3,4-Dihydro-2H,4H-5-pyrid[1,4]oxazin-6-yl)-5-fluoro-N2-[4-(4-methylpiperazino)phenyl]-2,4-pyrimidinediamine] | > 10 | < 10 | < 10 |  |  | 
19 | CN1CCN(c2cccc(Nc3ncc(F)c(Nc4ccc5c(n4)NCCO5)n3)c2)CC1 [Compound 1142, N4-(3,4-Dihydro-2H,4H-5-pyrid[1,4]oxazin-6-yl)-5-fluoro-N2-[3-(4-methylpiperazino)phenyl]-2,4-pyrimidinediamine] |  |  |  | > 10 | < 10 | < 10
20 | Fc1cnc(Nc2cccc(-c3ncco3)c2)nc1Nc1ccc2c(n1)NCCO2 [Compound 1143, N4-(3,4-Dihydro-2H,4H-5-pyrid[1,4]oxazin-6-yl)-5-fluoro-N2-[3-(oxazol-2-yl)phenyl]-2,4-pyrimidinediamine] |  |  |  | > 10 | < 10 | < 10
